Data on 26 compounds can be found in patent US7989639B2 (Novartis AG, priority 2006, dated 2011).

Common to all, as to type: physicochemical
Data set [1] is described as follows: Thermogravimetric analysis (TGA) of the salts: loss on drying, desolvation and decomposition temperature. The conditions noted are these: for Tdecomposition: approximated by onset of first derivative of thermogravimetric curve vs. temperature, salt sample as obtained from the solvent/temperature; for Tdesolvation: value in brackets after LOD. An excerpt: In addition, “loss on drying” (LOD) refers to weight loss determined between ambient and decomposition temperatures. The later is approximated by the onset of the first derivative of the thermogravimetric curve vs. temperature. […] Salt formation, stoichiometry, and the presence or absence of solvents is confirmed by observing the ^1H-NMR chemical shifts of the corresponding salt forming agents and reaction solvents (the tables contain one characteristic chemical shift for salt forming agents or solvents). […] The extent of protonation of the free base is assessed by the change in the chemical shift of the benzylic (Hbz) protons. […] Finally, “-” indicates a measurement not taken.
A stoichiometric amount of acetic acid was subsequently added to the suspension. The mixture was stirred at either 60° C. or ambient temperature (where a clear solution formed, stirring continued at 4° C.). Solids were collected by filtration and analyzed by XRPD, TGA and in some instances ^1H-NMR.

The nature of data set [2]: Hygroscopicity / moisture uptake observed on isolation of the salts. The conditions noted are these: observation on isolated solid / during filtration. The protocol:
A stoichiometric amount of sodium hydroxide was subsequently added to the suspension. The mixture was stirred at 50° C. Once a clear solution formed, stirring continued at 4° C. Solids were collected by filtration and analyzed by XRPD and TGA.
It is noted that the initially formed yellow powder is a polymorph of the mesylate salt that contains more than the equimolar amount of methane sulfonic acid. […] Upon gentle heating to 40 or 50° C. and within 2 to 4 hours, the yellow powder converts to a white crystalline solid that contains the equimolar amount of the methane sulfonic acid. This salt is non-hygroscopic. It is also advised that addition of the methane sulfonic acid is done at ambient temperature and the temperature increased afterwards. It was observed that addition at higher temperature afforded the immediate precipitation of the salt as a soft and gummy material.

Data set [3] can be described thus: Thermogravimetric analysis (TGA) of the salts: loss on drying, desolvation and decomposition temperature. The settings on record: isothermal hold at 120° C. for 10 minutes.

Counter-ions that a name gives are not always drawn.

For `Cc1[nH]c2ccccc2c1CCNCc1ccc(/C=C/C(=O)NO)cc1` [sulfate salt form SA, N-hydroxy-3-[4-[[[2-(2-methyl-1H-indol-3-yl)ethyl]amino]methyl]phenyl]-2E-2-propenamide], the Tdecomposition in data set [1] came out at 162 °C.

On to `Cc1[nH]c2ccccc2c1CCNCc1ccc(/C=C/C(=O)NO)cc1` [potassium salt, N-hydroxy-3-[4-[[[2-(2-methyl-1H-indol-3-yl)ethyl]amino]methyl]phenyl]-2E-2-propenamide], for which, in data set [2], the Hygroscopicity result was “highly hygroscopic”.

For the compound `Cc1[nH]c2ccccc2c1CCNCc1ccc(/C=C/C(=O)NO)cc1` [benzoate salt form A, N-hydroxy-3-[4-[[[2-(2-methyl-1H-indol-3-yl)ethyl]amino]methyl]phenyl]-2E-2-propenamide], in data set [1], the Tdecomposition came to 160.2 °C.

On to `Cc1[nH]c2ccccc2c1CCNCc1ccc(/C=C/C(=O)NO)cc1` [mesylate salt form A, N-hydroxy-3-[4-[[[2-(2-methyl-1H-indol-3-yl)ethyl]amino]methyl]phenyl]-2E-2-propenamide], for which the Tdecomposition in data set [1] is 170.9 °C. The Hygroscopicity result in data set [2] (listed as mesylate salt yellow powder) is recorded as “very highly hygroscopic”.

With `Cc1[nH]c2ccccc2c1CCNCc1ccc(/C=C/C(=O)NO)cc1` [hemi-malate salt form SA, N-hydroxy-3-[4-[[[2-(2-methyl-1H-indol-3-yl)ethyl]amino]methyl]phenyl]-2E-2-propenamide], the Tdecomposition in data set [1] worked out at 95 °C.

Regarding `Cc1[nH]c2ccccc2c1CCNCc1ccc(/C=C/C(=O)NO)cc1` [sodium salt, N-hydroxy-3-[4-[[[2-(2-methyl-1H-indol-3-yl)ethyl]amino]methyl]phenyl]-2E-2-propenamide], in data set [2], the Hygroscopicity entry is recorded as “highly hygroscopic”.

Take `Cc1[nH]c2ccccc2c1CCNCc1ccc(/C=C/C(=O)NO)cc1` [zinc salt, N-hydroxy-3-[4-[[[2-(2-methyl-1H-indol-3-yl)ethyl]amino]methyl]phenyl]-2E-2-propenamide]: in data set [2], the Hygroscopicity result was “less hygroscopic than the sodium or potassium salt”.

Consider `Cc1[nH]c2ccccc2c1CCNCc1ccc(/C=C/C(=O)NO)cc1` [oxalate salts, N-hydroxy-3-[4-[[[2-(2-methyl-1H-indol-3-yl)ethyl]amino]methyl]phenyl]-2E-2-propenamide], for which the Hygroscopicity result in data set [2] is listed as “appear to absorb water during filtration”.

`Cc1[nH]c2ccccc2c1CCNCc1ccc(/C=C/C(=O)NO)cc1` [mesylate salt forms A + B, N-hydroxy-3-[4-[[[2-(2-methyl-1H-indol-3-yl)ethyl]amino]methyl]phenyl]-2E-2-propenamide]: the Tdecomposition in data set [1] worked out at 172.8 °C.

Turning to `Cc1[nH]c2ccccc2c1CCNCc1ccc(/C=C/C(=O)NO)cc1` [maleate salt form HA, N-hydroxy-3-[4-[[[2-(2-methyl-1H-indol-3-yl)ethyl]amino]methyl]phenyl]-2E-2-propenamide], the Tdecomposition in data set [1] was determined as 150 °C.

With `Cc1[nH]c2ccccc2c1CCNCc1ccc(/C=C/C(=O)NO)cc1` [sulfate salt form A, N-hydroxy-3-[4-[[[2-(2-methyl-1H-indol-3-yl)ethyl]amino]methyl]phenyl]-2E-2-propenamide], the Tdecomposition in data set [1] is ~160 °C. Besides, the Hygroscopicity result in data set [2] is given as “hygroscopic”.

As to `Cc1[nH]c2ccccc2c1CCNCc1ccc(/C=C/C(=O)NO)cc1` [hemi-succinate salt form SA, N-hydroxy-3-[4-[[[2-(2-methyl-1H-indol-3-yl)ethyl]amino]methyl]phenyl]-2E-2-propenamide], in data set [1], the Tdecomposition is 155.8 °C and the Tdesolvation result is reported as “(90.6) (2- ° C”.

For the compound `Cc1[nH]c2ccccc2c1CCNCc1ccc(/C=C/C(=O)NO)cc1` [benzoate salt form SA, N-hydroxy-3-[4-[[[2-(2-methyl-1H-indol-3-yl)ethyl]amino]methyl]phenyl]-2E-2-propenamide], the Tdecomposition entry in data set [1] is “at 110 °C”. The “LOD % (isothermal)” value in data set [3] is 5.2%.

For `Cc1[nH]c2ccccc2c1CCNCc1ccc(/C=C/C(=O)NO)cc1` [acetate salt form A, N-hydroxy-3-[4-[[[2-(2-methyl-1H-indol-3-yl)ethyl]amino]methyl]phenyl]-2E-2-propenamide], the Tdecomposition turned out to be 147.9 °C in data set [1] (salt formed in AcOEt at 60 °C) and 148.7 °C in data set [1] (salt formed in IPA at 60 °C). Moreover, the Tdesolvation in data set [1] was 72.5 °C.

As for `Cc1[nH]c2ccccc2c1CCNCc1ccc(/C=C/C(=O)NO)cc1` [benzoate salt form SB, N-hydroxy-3-[4-[[[2-(2-methyl-1H-indol-3-yl)ethyl]amino]methyl]phenyl]-2E-2-propenamide], the Tdecomposition entry in data set [1] was “dec. at 100 °C”. In addition, in data set [3], the “LOD % (isothermal)” value came out at 6.3%.

Take `Cc1[nH]c2ccccc2c1CCNCc1ccc(/C=C/C(=O)NO)cc1` [phosphate salt form HA, N-hydroxy-3-[4-[[[2-(2-methyl-1H-indol-3-yl)ethyl]amino]methyl]phenyl]-2E-2-propenamide]: the Tdecomposition in data set [1] amounted to 179.6 °C.

Regarding `Cc1[nH]c2ccccc2c1CCNCc1ccc(/C=C/C(=O)NO)cc1` [hemi-fumarate salt form HA, N-hydroxy-3-[4-[[[2-(2-methyl-1H-indol-3-yl)ethyl]amino]methyl]phenyl]-2E-2-propenamide], the Tdecomposition in data set [1] was found to be 159.8 °C.

As to `Cc1[nH]c2ccccc2c1CCNCc1ccc(/C=C/C(=O)NO)cc1` [calcium salt, N-hydroxy-3-[4-[[[2-(2-methyl-1H-indol-3-yl)ethyl]amino]methyl]phenyl]-2E-2-propenamide], the Hygroscopicity result in data set [2] is given as “less hygroscopic than the sodium or potassium salt”.

With `Cc1[nH]c2ccccc2c1CCNCc1ccc(/C=C/C(=O)NO)cc1` [maleate salt polymorph from 2-propanol (yellow powder)] [N-hydroxy-3-[4-[[[2-(2-methyl-1H-indol-3-yl)ethyl]amino]methyl]phenyl]-2E-2-propenamide], in data set [1], the Tdecomposition stood at 118.9 °C.

Take `Cc1[nH]c2ccccc2c1CCNCc1ccc(/C=C/C(=O)NO)cc1` [hemi-tartarate salt form B, N-hydroxy-3-[4-[[[2-(2-methyl-1H-indol-3-yl)ethyl]amino]methyl]phenyl]-2E-2-propenamide]: the Tdecomposition in data set [1] was >160 °C.

Turning to `Cc1[nH]c2ccccc2c1CCNCc1ccc(/C=C/C(=O)NO)cc1` [hemi-fumarate salt form B, N-hydroxy-3-[4-[[[2-(2-methyl-1H-indol-3-yl)ethyl]amino]methyl]phenyl]-2E-2-propenamide], the Tdecomposition in data set [1] amounted to 213.2 °C.

As to `Cc1[nH]c2ccccc2c1CCNCc1ccc(/C=C/C(=O)NO)cc1` [gentisate salt form A, N-hydroxy-3-[4-[[[2-(2-methyl-1H-indol-3-yl)ethyl]amino]methyl]phenyl]-2E-2-propenamide], the Tdecomposition in data set [1] was determined as 235.5 °C.

On to `Cc1[nH]c2ccccc2c1CCNCc1ccc(/C=C/C(=O)NO)cc1` [hemi-malonate salt form A, N-hydroxy-3-[4-[[[2-(2-methyl-1H-indol-3-yl)ethyl]amino]methyl]phenyl]-2E-2-propenamide], for which the Tdecomposition in data set [1] (salt prepared in EtOH) worked out at 169.5 °C; in data set [1] (salt prepared in IPA), 174.1 °C.

Regarding `Cc1[nH]c2ccccc2c1CCNCc1ccc(/C=C/C(=O)NO)cc1` [hydrochloride salt form A, N-hydroxy-3-[4-[[[2-(2-methyl-1H-indol-3-yl)ethyl]amino]methyl]phenyl]-2E-2-propenamide], the Tdecomposition in data set [1] is 232.3 °C.

With `Cc1[nH]c2ccccc2c1CCNCc1ccc(/C=C/C(=O)NO)cc1` [mesylate salt form B, N-hydroxy-3-[4-[[[2-(2-methyl-1H-indol-3-yl)ethyl]amino]methyl]phenyl]-2E-2-propenamide], the Hygroscopicity entry in data set [2] (listed as mesylate salt white crystalline solid) was “non-hygroscopic”.

As to `Cc1[nH]c2ccccc2c1CCNCc1ccc(/C=C/C(=O)NO)cc1` [acetate salt form SA, N-hydroxy-3-[4-[[[2-(2-methyl-1H-indol-3-yl)ethyl]amino]methyl]phenyl]-2E-2-propenamide], in data set [1], the Tdecomposition amounted to 147.9 °C and the Tdesolvation came out at 107.9 °C.
